{"source": "patent US8614068B2", "about": "“Process for producing hepcidin” (Hellenic Pasteur Institute, priority 2007, dated 2013)", "key": {"bacteria ML35p": {"system": "bacteria ML35p", "settings": "at 30 μM concentration; cited from earlier work"}, "ferroportin (FPN1)": {"target": "T1, ferroportin (FPN1) (Mus musculus, UniProt Q9JHI9)", "T1 construct": "endogenous in cells; host or cells: RAW 264.7 murine macrophages", "T1 sequence (Q9JHI9 1-570)": "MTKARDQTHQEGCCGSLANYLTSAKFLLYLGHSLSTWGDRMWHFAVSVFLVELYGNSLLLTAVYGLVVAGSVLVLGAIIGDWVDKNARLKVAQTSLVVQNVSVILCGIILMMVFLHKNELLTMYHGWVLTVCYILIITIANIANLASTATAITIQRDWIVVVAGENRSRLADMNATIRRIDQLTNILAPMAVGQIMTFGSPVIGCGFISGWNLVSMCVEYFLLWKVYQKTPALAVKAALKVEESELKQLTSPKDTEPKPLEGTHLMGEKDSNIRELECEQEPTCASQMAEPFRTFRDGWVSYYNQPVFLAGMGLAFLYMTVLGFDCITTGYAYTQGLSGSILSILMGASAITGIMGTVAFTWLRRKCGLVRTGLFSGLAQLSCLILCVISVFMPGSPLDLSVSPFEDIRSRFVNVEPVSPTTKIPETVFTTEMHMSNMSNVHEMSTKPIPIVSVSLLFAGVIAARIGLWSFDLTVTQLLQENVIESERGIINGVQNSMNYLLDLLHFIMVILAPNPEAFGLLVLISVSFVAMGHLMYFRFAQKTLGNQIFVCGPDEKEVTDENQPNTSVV", "experiment": "Western blot of ferroportin expression in macrophages", "assay_type": "cell-based, murine", "settings": "data not shown", "experimental": "(§1) A, RAW 264.7 macrophages were treated with 11 μM and 10 μM of synthetic hepcidin-25 (having the sequence of SEQ ID NO. 2) and Hep-25His (having the sequence of SEQ ID NO. 6) for 4 h at 37° C. or with PBS as negative control. Cell lysates were subjected to 8% SDS PAGE and Western Blot with antibodies against TfR1, Ferroportin and actin as loading control. B, The signal density of ferroportin, TfR1 and actin protein bands from two independent experiments were quantified by densitometry and their intensity relative to actin was calculated. […] Hep25-His, negative peptide and PBS was incubated with Raw 264.7 macrophages, followed by cross-linking with DSS. Cell lysates were incubated with Ni2-NTA and eluates were analyzed by Western blot using anti-FPN1 Ab. […] HEK293-Fpn cells were induced with ponasterone for 24 h and then treated with Hep25-His or synthetic hepcidin 25 (s. Hep25) for 3 h. Fluorescence was visualized with a Leica TCS confocal microscope.\n(§2) Western blotting—1×10^6 cells (RAW 264.7, THP-1 or J774) were plated in […] plates and after 12-20 h cells were treated with hepcidins in serum-free DMEM for 4 h, at 37° C. Afterwards, cells were re-suspended in lysis buffer (1% Triton, 25 mM Hepes pH 7.4, 150 mM NaCl, 10% Glycerol, 5 mM EDTA, 0.5 mM PMSF, protein inhibitors (Roche, Mannheim, Germany) and quantified by Bradford assay (Biorad, Hercules, Calif.). 30 μg of cell lysate was analyzed on 8% SDS-PAGE. Proteins were transferred to Hybond C nitrocellulose membrane (Amersham Biosciences, Piscataway, N.J.) and the membranes were incubated with the primary antibodies rabbit anti-ferroportin (Alpha Diagnostics, San Antonio, Tex.), mouse anti-TfR1 (Zymed, Invitrogen, Carlsbad, Calif.) and mouse anti-β actin (Santa Cruz Biotech, Santa Cruz, Calif.), in a dilution of 1:1000, overnight at 4° C. After washing, the membranes were incubated with anti-rabbit and anti-mouse secondary antibodies conjugated with HRP, in a dilution of 1:5000 (DakoCytomation, Carpinteria, Calif.), for 1 h at room temperature. Specific signal was detected with a chemiluminescence assay kit (ECL, Amersham Biosciences, Piscataway, N.J.). The bands were quantified by densitometry using the Quantity-One (Biorad, Hercules, Calif.) software. Data are shown as means±SD. Statistical analysis was performed by student t-Test."}, "TfR1": {"system": "TfR1", "experiment": "Western blot of TfR1 expression in macrophages", "assay_type": "cell-based, murine", "settings": "RAW 264.7, 10 μM, 4 h at 37° C.", "experimental": "as §1\nas §2, with “After washing, the membranes were incubated with anti-rabbit and anti-mouse secondary antibodies conjugated with HRP, in a dilution of 1:5000 (DakoCytomation, Carpinteria, Calif.), for 1 h at room temperature.” left out, “Data are shown as means±SD. Statistical analysis was performed by student t-Test.” left out"}}, "note": "Ends that are not written are not given here.", "data": [{"compound": "hep25: hepcidin 25 as tested by Park et al. 2001 (natural, isolated from urine, or synthetic) (DTHFPICIFCCGCCHRSKCGMCCKT; ends and bridges not checked; cysteine pairing not given here; UniProt P81172 60-84, looked up)", "values": [{"measurement": "reduction of surviving bacteria ML35p", "setting": "bacteria ML35p", "value": 1000, "unit": "fold"}]}, {"compound": "oligomeric fraction of Hep25-His: oligomer peak of Ni-NTA purified Hep-25His from size exclusion chromatography", "values": [{"measurement": "effect on cellular iron metabolism", "setting": "ferroportin (FPN1)", "value": "no effect"}]}, {"compound": "CC[C@H](C)[C@@H]1NC(=O)[C@@H](NC(=O)[C@@H](NC(=O)[C@@H]2CCCN2C(=O)[C@H](Cc2ccccc2)NC(=O)[C@H](Cc2c[nH]cn2)NC(=O)[C@@H](NC(=O)[C@@H](N)CC(=O)O)[C@@H](C)O)[C@@H](C)CC)CSSC[C@@H](C(=O)N[C@@H](CCCCN)C(=O)N[C@H](C(=O)O)[C@@H](C)O)NC(=O)[C@@H]2CSSC[C@H](NC(=O)[C@H](Cc3ccccc3)NC1=O)C(=O)N[C@H]1CSSC[C@H](NC(=O)[C@H](CCCCN)NC(=O)[C@H](CO)NC(=O)[C@H](CCCNC(=N)N)NC(=O)[C@H](Cc3c[nH]cn3)NC(=O)[C@@H]3CSSC[C@H](NC(=O)CNC1=O)C(=O)N3)C(=O)NCC(=O)N[C@@H](CCSC)C(=O)N2", "note": "[synthetic hepcidin 25, hepcidin 25, reference compound]", "values": [{"measurement": "reduction of TfR1 in comparison to untreated cells", "setting": "TfR1", "value": "37%±6"}, {"measurement": "IC50", "setting": "E. coli strain ML35; ML35, 2 h", "value": 9, "unit": "µM"}]}, {"compound": "hepcidin-20 (ICIFCCGCCHRSKCGMCCKT; listed as Homo sapiens)", "values": [{"measurement": "concentration at which bactericidal", "setting": "E. coli strain ML35; CFU assay, 2 h at 37° C., data not shown", "value": "higher than 10 mM"}]}, {"compound": "hep20: hepcidin 20 as tested by Park et al. 2001 (ICIFCCGCCHRSKCGMCCKT; ends and bridges not checked; cysteine pairing not given here; UniProt P81172 65-84, looked up)", "values": [{"measurement": "reduction of surviving bacteria ML35p", "setting": "bacteria ML35p", "value": 1000, "unit": "fold"}]}]}
